In patent publication US10947389B2, “Composition, film, near infrared cut filter, laminate, pattern forming method, solid image pickup element, image display device, infrared sensor, and color filter” (FUJIFILM Corporation, priority 2016, dated 2021):

Experiments:
[1] = Evaluation of solubility in water at 23° C.; type: physicochemical; settings: stirred for 1 hour
Experimental: Each of the compounds was added to water at 23° C. under the atmospheric pressure, the components were stirred for 1 hour, and the solubility of the compound in water was obtained. The solubility of the compound was evaluated based on the following criteria.
A: the solubility in water at 23° C. was 0.1 mass % or lower
B: the solubility in water at 23° C. was higher than 0.1 mass % and 1 mass % or lower
C: the solubility in water at 23° C. was higher than 1 mass %

[2] = Evaluation of absorption maximum and absorbance ratio (500 nm/λmax) in solution; type: physicochemical; settings: for Absorbance Ratio (500 nm/λmax) / Absorption Maximum (nm): solvent chloroform; for λmax (nm) of Second Near Infrared Absorbing Compound: as listed in Table 58
Description: In this specification, “having an absorption maximum in a wavelength range of 650 to 1000 nm” denotes having a maximum absorbance in a wavelength range of 650 to 1000 nm in an absorption spectrum of the near infrared absorbing compound in a solution. Examples of a measurement solvent used for the measurement of the absorption spectra of the near infrared absorbing compound in the solution include chloroform, methanol, dimethyl sulfoxide, ethyl acetate, and tetrahydrofuran. In the case of a compound which is soluble in chloroform, chloroform is used as the measurement solvent. In the case of a compound which is not soluble in chloroform, methanol is used. In addition, In the case of a compound which is not soluble in chloroform and methanol, dimethyl sulfoxide is used.
Each of the compounds was dissolved in a measurement solvent shown in the following tables (concentration: 2.5×10^−6 mol/L) to measure an absorption spectrum (optical path length: 10 mm).
In addition, an absorbance ratio (500 nm/λmax) as a value obtained by dividing an absorbance at a wavelength of 500 nm by an absorbance at an absorption maximum was evaluated based on the following criteria.
A: the absorbance ratio (500 nm/λmax) was 0.04 or lower
B: the absorbance ratio (500 nm/λmax) was higher 0.04 and 0.08 or lower
C: the absorbance ratio (500 nm/λmax) was higher than 0.08

Row | SMILES | Solubility [1] | Absorbance Ratio (500 nm/λmax) [2] | Absorption Maximum (nm) [2] [nm] | λmax (nm) of Second Near Infrared Absorbing Compound [2] [nm]
1 | CC(C)CCCCCCCC(CCCCCC(C)C)COc1cccc(-c2c3c(=C(C#N)c4nc5c(ccc6ccccc65)o4)n(B(c4ccccc4)c4ccccc4)c(-c4cccc(OCC(CCCCCCCC(C)C)CCCCCC(C)C)c4)c3c(=C(C#N)c3nc4c(ccc5ccccc54)o3)n2B(c2ccccc2)c2ccccc2)c1 (centres unmarked) [II-715] | A (the solubility in water at 23 °C was 0.1 mass % or lower) | A (the absorbance ratio (500 nm/λmax) was 0.04 or lower) | 769 | 
2 | Cc1ccccc1B(c1ccccc1C)n1c(-c2ccc(OCC(CCC(C)CC(C)(C)C)C(C)CC(C)(C)C)cc2)c2/c(=C(\C#N)c3nc4ccccc4o3)n(B(c3ccccc3C)c3ccccc3C)c(-c3ccc(OCC(CCC(C)CC(C)(C)C)C(C)CC(C)(C)C)cc3)c2/c1=C(\C#N)c1nc2ccccc2o1 (centres unmarked) [II-44] | A (the solubility in water at 23 °C was 0.1 mass % or lower) | A (the absorbance ratio (500 nm/λmax) was 0.04 or lower) | 732 | 
3 | CC(C)CCCCCCCC(CCCCCC(C)C)COc1ccc(-c2c3c(=C(C#N)c4nc5ccccc5o4)n(B(c4ccccc4)c4ccccc4)c(-c4ccc(OCC(CCCCCCCC(C)C)CCCCCC(C)C)cc4)c3c(=C(C#N)c3nc4ccccc4o3)n2B(c2ccccc2)c2ccccc2)cc1 (centres unmarked) [II-9] | A (the solubility in water at 23 °C was 0.1 mass % or lower) | A (the absorbance ratio (500 nm/λmax) was 0.04 or lower) | 740 | 
4 | Cc1ccc2oc(/C(C#N)=c3/c4c(-c5ccc(OCC(CCC(C)CC(C)(C)C)C(C)CC(C)(C)C)cc5)n(B(c5ccccc5C)c5ccccc5C)/c(=C(/C#N)c5nc6cc(C)ccc6o5)c4c(-c4ccc(OCC(CCC(C)CC(C)(C)C)C(C)CC(C)(C)C)cc4)n3B(c3ccccc3C)c3ccccc3C)nc2c1 (centres unmarked) [II-202] | A (the solubility in water at 23 °C was 0.1 mass % or lower) | A (the absorbance ratio (500 nm/λmax) was 0.04 or lower) | 737 | 
5 | COc1ccc2sc(C(C#N)=c3c4c(-c5ccc(OCC(CCCCCCCC(C)C)CCCCCC(C)C)cc5)n(B(c5ccccc5)c5ccccc5)c(=C(C#N)c5nc6cc(OC)ccc6s5)c4c(-c4ccc(OCC(CCCCCCCC(C)C)CCCCCC(C)C)cc4)n3B(c3ccccc3)c3ccccc3)nc2c1 (centres unmarked) [II-673] | A (the solubility in water at 23 °C was 0.1 mass % or lower) | A (the absorbance ratio (500 nm/λmax) was 0.04 or lower) | 794 | 
6 | CC(C)CCCCCCCC(CCCCCC(C)C)COc1cccc(-c2c3c(=C(C#N)c4nc5ccccc5o4)n(B(c4ccccc4)c4ccccc4)c(-c4cccc(OCC(CCCCCCCC(C)C)CCCCCC(C)C)c4)c3c(=C(C#N)c3nc4ccccc4o3)n2B(c2ccccc2)c2ccccc2)c1 (centres unmarked) [II-27] | A (the solubility in water at 23 °C was 0.1 mass % or lower) | A (the absorbance ratio (500 nm/λmax) was 0.04 or lower) | 743 | 743
7 | Cc1ccc2oc(C(C#N)=c3c4c(-c5ccc(OCC(CCC(C)CC(C)(C)C)C(C)CC(C)(C)C)cc5)n(B(c5ccccc5)c5ccccc5)c(=C(C#N)c5nc6cc(C)ccc6o5)c4c(-c4ccc(OCC(CCC(C)CC(C)(C)C)C(C)CC(C)(C)C)cc4)n3B(c3ccccc3)c3ccccc3)nc2c1 (centres unmarked) [II-168] | A (the solubility in water at 23 °C was 0.1 mass % or lower) | A (the absorbance ratio (500 nm/λmax) was 0.04 or lower) | 745 | 
8 | Cc1ccc2oc(C(C#N)=c3c4c(-c5ccc(OCC(CCCCCCCC(C)C)CCCCCC(C)C)cc5)n(B(c5ccccc5C)c5ccccc5C)c(=C(C#N)c5nc6cc(C)ccc6o5)c4c(-c4ccc(OCC(CCCCCCCC(C)C)CCCCCC(C)C)cc4)n3B(c3ccccc3C)c3ccccc3C)nc2c1 (centres unmarked) [II-201] | A (the solubility in water at 23 °C was 0.1 mass % or lower) | A (the absorbance ratio (500 nm/λmax) was 0.04 or lower) | 737 | 
9 | CCCCCCCCCCC(CCCCCCCC)COc1cccc(-c2c3/c(=C(\C#N)c4nc5ccccc5o4)n(B(c4ccccc4)c4ccccc4)c(-c4cccc(OCC(CCCCCCCC)CCCCCCCCCC)c4)c3/c(=C(\C#N)c3nc4ccccc4o3)n2B(c2ccccc2)c2ccccc2)c1 (centres unmarked) [II-29] | A (the solubility in water at 23 °C was 0.1 mass % or lower) | A (the absorbance ratio (500 nm/λmax) was 0.04 or lower) | 743 | 743
10 | CC(C)CCCCCCCC(CCCCCC(C)C)COc1ccc(-c2c3c(=C(C#N)c4nc5cc(Cl)ccc5o4)n(B(c4ccccc4)c4ccccc4)c(-c4ccc(OCC(CCCCCCCC(C)C)CCCCCC(C)C)cc4)c3c(=C(C#N)c3nc4cc(Cl)ccc4o3)n2B(c2ccccc2)c2ccccc2)cc1 (centres unmarked) [II-325] | A (the solubility in water at 23 °C was 0.1 mass % or lower) | A (the absorbance ratio (500 nm/λmax) was 0.04 or lower) | 738 | 
11 | Cc1ccccc1B(c1ccccc1C)n1c(-c2ccc(OCC(CCCCCCCC(C)C)CCCCCC(C)C)cc2)c2c(=C(C#N)c3nc4ccccc4o3)n(B(c3ccccc3C)c3ccccc3C)c(-c3ccc(OCC(CCCCCCCC(C)C)CCCCCC(C)C)cc3)c2c1=C(C#N)c1nc2ccccc2o1 (centres unmarked) [II-43] | A (the solubility in water at 23 °C was 0.1 mass % or lower) | A (the absorbance ratio (500 nm/λmax) was 0.04 or lower) | 732 | 
12 | CC(C)CCCCCCCC(CCCCCC(C)C)COc1cccc(-c2c3c(=C(C#N)c4nc5ccccc5s4)n(B4Oc5ccccc5O4)c(-c4cccc(OCC(CCCCCCCC(C)C)CCCCCC(C)C)c4)c3c(=C(C#N)c3nc4ccccc4s3)n2B2Oc3ccccc3O2)c1 (centres unmarked) [II-589] | A (the solubility in water at 23 °C was 0.1 mass % or lower) | A (the absorbance ratio (500 nm/λmax) was 0.04 or lower) | 719 | 719
13 | CCCCC(CC)COc1ccc(B2N=c3/c(=C4/C(=O)C(c5ccc6cccc7c6c5NB(c5ccc(OCC(CC)CCCC)cc5)N7)=C4O)ccc4cccc(c34)N2)cc1 (centres unmarked) [Compound Q-39] | A (the solubility in water at 23 °C was 0.1 mass % or lower) | A (the absorbance ratio (500 nm/λmax) was 0.04 or lower) | 822 | 
14 | CC(C)CCCCCCCC(CCCCCC(C)C)COc1cccc(-c2c3c(=C(C#N)c4nc5ccccc5s4)n(B(c4ccccc4)c4ccccc4)c(-c4cccc(OCC(CCCCCCCC(C)C)CCCCCC(C)C)c4)c3c(=C(C#N)c3nc4ccccc4s3)n2B(c2ccccc2)c2ccccc2)c1 (centres unmarked) [II-525] | A (the solubility in water at 23 °C was 0.1 mass % or lower) | A (the absorbance ratio (500 nm/λmax) was 0.04 or lower) | 783 | 
15 | CCCCC(CC)CC(=O)Nc1cc2c(cc1C1=C([O-])/C(=c3/cc4c(cc3NC(=O)CC(CC)CCCC)=[N+](C)C(C)C4(C)C)C1=O)C(C)(C)C(C)N2C (centres unmarked) [Compound Q-36] | A (the solubility in water at 23 °C was 0.1 mass % or lower) | A (the absorbance ratio (500 nm/λmax) was 0.04 or lower) | 704 | 704
16 | CC(CCC(COc1ccc(-c2c3c(=C(C#N)c4nc5ccccc5s4)n(B(c4ccccc4)c4ccccc4)c(-c4ccc(OCC(CCC(C)CC(C)(C)C)C(C)CC(C)(C)C)cc4)c3c(=C(C#N)c3nc4ccccc4s3)n2B(c2ccccc2)c2ccccc2)cc1)C(C)CC(C)(C)C)CC(C)(C)C (centres unmarked) [II-508] | A (the solubility in water at 23 °C was 0.1 mass % or lower) | A (the absorbance ratio (500 nm/λmax) was 0.04 or lower) | 780 | 
17 | Cc1ccc2oc(/C(C#N)=c3/c4c(-c5cccc(OCC(CCC(C)CC(C)(C)C)C(C)CC(C)(C)C)c5)n(B5Oc6cc7ccccc7cc6O5)/c(=C(/C#N)c5nc6cc(C)ccc6o5)c4c(-c4cccc(OCC(CCC(C)CC(C)(C)C)C(C)CC(C)(C)C)c4)n3B3Oc4cc5ccccc5cc4O3)nc2c1 (centres unmarked) [II-275] | A (the solubility in water at 23 °C was 0.1 mass % or lower) | A (the absorbance ratio (500 nm/λmax) was 0.04 or lower) | 685 | 685
18 | CC(C)CCCCCCCC(CCCCCC(C)C)COc1ccc(-c2c3c(=C(C#N)c4cnc5ccccc5n4)n(B(c4ccccc4)c4ccccc4)c(-c4ccc(OCC(CCCCCCCC(C)C)CCCCCC(C)C)cc4)c3c(=C(C#N)c3cnc4ccccc4n3)n2B(c2ccccc2)c2ccccc2)cc1 (centres unmarked) [III-9] | A (the solubility in water at 23 °C was 0.1 mass % or lower) | A (the absorbance ratio (500 nm/λmax) was 0.04 or lower) | 863 | 
